From patent US9156829B2, “Cycloalkyl and heterocycloalkyl compounds as orexin receptor antagonists” (Takeda Pharmaceutical Company Limited, priority 2014, dated 2015)
pIC50: −log10 of the molar value.

How the values were obtained:
[1] = target: human orexin receptor 2 (Homo sapiens (Human), UniProt O43614); assay: Orexin antagonist activity, intracellular calcium FLIPR assay, RBL-2H3 cells expressing human orexin receptor 2; assay type: cell-based; details: RBL-2H3 cells stably expressing human orexin receptor 2; orexin-A at approx. 80% maximal response; compound added 15 minutes before; read-out: Human Orexin2R IC50
Sequence of human orexin receptor 2 (O43614 whole entry): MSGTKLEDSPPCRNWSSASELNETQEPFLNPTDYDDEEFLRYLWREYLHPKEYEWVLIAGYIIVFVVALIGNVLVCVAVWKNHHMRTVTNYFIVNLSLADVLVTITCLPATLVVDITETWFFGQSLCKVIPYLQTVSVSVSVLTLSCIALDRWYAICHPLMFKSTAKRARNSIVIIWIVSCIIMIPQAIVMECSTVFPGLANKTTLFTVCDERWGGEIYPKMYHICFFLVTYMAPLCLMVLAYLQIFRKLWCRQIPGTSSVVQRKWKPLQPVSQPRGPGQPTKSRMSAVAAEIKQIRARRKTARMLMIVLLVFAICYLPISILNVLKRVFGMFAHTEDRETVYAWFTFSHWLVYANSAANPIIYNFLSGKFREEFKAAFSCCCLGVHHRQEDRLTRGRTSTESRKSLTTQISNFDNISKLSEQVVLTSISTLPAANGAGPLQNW

[2] = target: human orexin receptor 1 (Homo sapiens (Human), UniProt O43613); assay: Orexin antagonist activity, intracellular calcium FLIPR assay, RBL-2H3 cells expressing human orexin receptor 1; assay type: cell-based; details: RBL-2H3 cells stably expressing human orexin receptor 1; orexin-A at approx. 80% maximal response; compound added 15 minutes before; read-out: Human Orexin1R IC50
Sequence of human orexin receptor 1 (O43613 whole entry): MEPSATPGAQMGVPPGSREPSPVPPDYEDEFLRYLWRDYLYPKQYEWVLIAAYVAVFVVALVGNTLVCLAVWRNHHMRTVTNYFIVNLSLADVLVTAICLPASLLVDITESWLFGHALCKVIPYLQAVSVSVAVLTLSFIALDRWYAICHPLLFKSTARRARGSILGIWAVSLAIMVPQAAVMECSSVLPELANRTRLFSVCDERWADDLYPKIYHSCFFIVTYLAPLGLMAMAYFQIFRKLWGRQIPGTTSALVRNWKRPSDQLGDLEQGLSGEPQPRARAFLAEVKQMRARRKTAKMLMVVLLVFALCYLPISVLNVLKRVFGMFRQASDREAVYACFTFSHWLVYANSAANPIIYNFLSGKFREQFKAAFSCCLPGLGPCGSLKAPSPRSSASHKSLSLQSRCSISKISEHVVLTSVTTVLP

SMILES: O=C(NC1CCCC1Cc1cc(C(F)(F)F)ccn1)c1ccccc1-n1nccn1 (single isomer, unassigned) [Example 23, 2-(2H-1,2,3-Triazol-2-yl)-N-(2-{[4-(trifluoromethyl)pyridin-2-yl]methyl}cyclopentyl)benzamide]
- pIC50 [1]: 5.42
- pIC50 [2]: 6.10

SMILES: O=C(NC1CCCC1Cc1ccc(C(F)(F)F)cn1)c1ccccc1-n1nccn1 (single isomer, unassigned) [Example 25, 2-(2H-1,2,3-Triazol-2-yl)-N-(2-{[5-(trifluoromethyl)pyridin-2-yl]methyl}cyclopentyl)benzamide]
- pIC50 [1]: < 5.00
- pIC50 [2]: 6.33

SMILES: CC1(Nc2ncc(C(F)(F)F)cn2)CCCC1NC(=O)c1ccccc1-n1nccn1 (single isomer, unassigned) [Example 94, N-(2-Methyl-2-{[5-(trifluoromethyl)pyrimidin-2-yl]amino}cyclopentyl)-2-(2H-1,2,3-triazol-2-yl)benzamide]
- pIC50 [1]: < 5.00
- pIC50 [2]: 7.55

SMILES: O=C(NC1CC(F)(F)CC1Nc1ncc(C(F)(F)F)cn1)c1ccccc1-n1nccn1 (single isomer, unassigned) [Example 127, N-(4,4-Difluoro-2-{[5-(trifluoromethyl)pyrimidin-2-yl]amino}cyclopentyl)-2-(2H-1,2,3-triazol-2-yl)benzamide]
- pIC50 [1]: < 5.00
- pIC50 [2]: 7.17

SMILES: O=C(NC1CC(F)(F)CC1Nc1ccc(C(F)(F)F)cn1)c1ccccc1-n1nccn1 (single isomer, unassigned) [Example 128, N-(4,4-Difluoro-2-{[5-(trifluoromethyl)pyridin-2-yl]amino}cyclopentyl)-2-(2H-1,2,3-triazol-2-yl)benzamide]
- pIC50 [1]: < 5.00
- pIC50 [2]: 7.48

SMILES: O=C(NC1CC(F)(F)CC1Nc1ccc(C(F)(F)F)cn1)c1ccccc1-n1nccn1 (single isomer, unassigned) [Example 129, N-(4,4-Difluoro-2-{[5-(trifluoromethyl)pyridin-2-yl]amino}cyclopentyl)-2-(2H-1,2,3-triazol-2-yl)benzamide]
- pIC50 [1]: 5.06
- pIC50 [2]: 6.20

SMILES: O=C(NC1CC(F)(F)CC1Nc1cnc(C(F)(F)F)cn1)c1ccccc1-n1nccn1 (single isomer, unassigned) [Example 130, N-(4,4-Difluoro-2-{[5-(trifluoromethyl)pyrazin-2-yl]amino}cyclopentyl)-2-(2H-1,2,3-triazol-2-yl)benzamide]
- pIC50 [2]: 7.11

SMILES: COc1cccc(OC)c1C(=O)N[C@H]1CCC[C@@H]1Nc1ccc(C(F)(F)F)cn1 [Example 1, 2,6-Dimethoxy-N-[(1S,2S)-2-{[5-(trifluoromethyl)pyridin-2-yl]amino}cyclopentyl]benzamide]
- pIC50 [1]: < 5.00
- pIC50 [2]: 6.62

SMILES: COc1cccc(OC)c1C(=O)N[C@H]1CCC[C@@H]1Nc1ncc(C(F)(F)F)cn1 [Example 2, 2,6-Dimethoxy-N-[(1S,2S)-2-{[5-(trifluoromethyl)pyrimidin-2-yl]amino}cyclopentyl]benzamide]
- pIC50 [1]: < 5.00
- pIC50 [2]: 6.06

SMILES: Cc1ccc(-n2nccn2)c(C(=O)N[C@H]2CCC[C@@H]2Nc2ncc(C(F)(F)F)cn2)c1 [Example 3, 5-Methyl-2-(2H-1,2,3-triazol-2-yl)-N-[(1S,2S)-2-{[5-(trifluoromethyl)pyrimidin-2-yl]amino}cyclopentyl]benzamide]
- pIC50 [1]: < 5.00
- pIC50 [2]: 7.24

SMILES: CCc1cnc(N[C@H]2CCC[C@@H]2NC(=O)c2cc(C)ccc2-n2nccn2)nc1 [Example 4, N-[(1S,2S)-2-[(5-Ethylpyrimidin-2-yl)amino]cyclopentyl]-5-methyl-2-(2H-1,2,3-triazol-2-yl)benzamide]
- pIC50 [1]: < 5.00
- pIC50 [2]: 6.28

SMILES: Cc1ccc(-n2nccn2)c(C(=O)N[C@H]2CCC[C@@H]2Nc2ccc(C(F)(F)F)cn2)c1 [Example 6, 5-Methyl-2-(2H-1,2,3-triazol-2-yl)-N-[(1S,2S)-2-{[5-(trifluoromethyl)pyridin-2-yl]amino}cyclopentyl]benzamide]
- pIC50 [1]: < 5.00
- pIC50 [2]: 7.29

SMILES: Cc1ccc(-n2nccn2)c(C(=O)N[C@H]2CCC[C@@H]2Nc2cnc(C(F)(F)F)cn2)c1 [Example 7, 5-Methyl-2-(2H-1,2,3-triazol-2-yl)-N-[(1S,2S)-2-{[5-(trifluoromethyl)pyrazin-2-yl]amino}cyclopentyl]benzamide]
- pIC50 [1]: < 5.00
- pIC50 [2]: 7.29

SMILES: Cc1noc(-c2ccccc2C(=O)N[C@H]2CCC[C@@H]2Nc2ccc(C(F)(F)F)cn2)n1 [Example 8, 2-(3-Methyl-1,2,4-oxadiazol-5-yl)-N-[(1S,2S)-2-{[5-(trifluoromethyl)pyridin-2-yl]amino}cyclopentyl]benzamide]
- pIC50 [1]: < 5.00
- pIC50 [2]: 6.96

SMILES: Cc1ccc(-n2nccn2)c(C(=O)N[C@H]2CCC[C@@H]2Nc2cnc(Cl)cn2)c1 [Example 9, N-[(1S,2S)-2-[(5-Chloropyrazin-2-yl)amino]cyclopentyl]-5-methyl-2-(2H-1,2,3-triazol-2-yl)benzamide]
- pIC50 [1]: < 5.00
- pIC50 [2]: 6.47

SMILES: O=C(N[C@H]1CCC[C@@H]1Nc1ccc(C(F)(F)F)cn1)c1cc(F)ccc1-n1nccn1 [Example 10, 5-Fluoro-2-(2H-1,2,3-triazol-2-yl)-N-[(1S,2S)-2-{[5-(trifluoromethyl)pyridin-2-yl]amino}cyclopentyl]benzamide]
- pIC50 [1]: < 5.00
- pIC50 [2]: 7.23

SMILES: O=C(N[C@H]1CCC[C@@H]1Nc1ccc(C(F)(F)F)cn1)c1ccccc1-n1cccn1 [Example 11, 2-(1H-Pyrazol-1-yl)-N-[(1S,2S)-2-{[5-(trifluoromethyl)pyridin-2-yl]amino}cyclopentyl]benzamide]
- pIC50 [1]: < 5.00
- pIC50 [2]: 6.77

SMILES: O=C(N[C@H]1CCC[C@@H]1Nc1ccc(C(F)(F)F)cn1)c1ccccc1-n1nccn1 [Example 12, 2-(2H-1,2,3-Triazol-2-yl)-N-[(1S,2S)-2-{[5-(trifluoromethyl)pyridin-2-yl]amino}cyclopentyl]benzamide]
- pIC50 [1]: < 5.00
- pIC50 [2]: 7.19

SMILES: O=C(N[C@H]1CCC[C@@H]1Nc1ccc(C(F)(F)F)cn1)c1ccccc1-c1ncccn1 [Example 13, 2-(Pyrimidin-2-yl)-N-[(1S,2S)-2-{[5-(trifluoromethyl)pyridin-2-yl]amino}cyclopentyl]benzamide]
- pIC50 [1]: < 5.00
- pIC50 [2]: 7.00

SMILES: O=C(N[C@H]1CCC[C@@H]1Nc1ccc(C(F)(F)F)cn1)c1cc(F)ccc1-c1ncccn1 [Example 14, 5-Fluoro-2-(pyrimidin-2-yl)-N-[(1S,2S)-2-{[5-(trifluoromethyl)pyridin-2-yl]amino}cyclopentyl]benzamide]
- pIC50 [1]: < 5.00
- pIC50 [2]: 7.05

SMILES: Cc1noc(-c2ccccc2C(=O)N[C@H]2CCC[C@@H]2Nc2cnc(C(F)(F)F)cn2)n1 [Example 15, 2-(3-Methyl-1,2,4-oxadiazol-5-yl)-N-[(1S,2S)-2-{[5-(trifluoromethyl)pyrazin-2-yl]amino}cyclopentyl]benzamide]
- pIC50 [1]: < 5.00
- pIC50 [2]: 7.31

SMILES: Cc1noc(-c2ccccc2C(=O)N[C@H]2CCC[C@@H]2Nc2ncc(C(F)(F)F)cn2)n1 [Example 16, 2-(3-Methyl-1,2,4-oxadiazol-5-yl)-N-[(1S,2S)-2-{[5-(trifluoromethyl)pyrimidin-2-yl]amino}cyclopentyl]benzamide]
- pIC50 [1]: < 5.00
- pIC50 [2]: 7.27

SMILES: O=C(N[C@H]1CCC[C@@H]1Nc1cnc(C(F)(F)F)cn1)c1ccccc1-n1nccn1 [Example 17, 2-(2H-1,2,3-Triazol-2-yl)-N-[(1S,2S)-2-{[5-(trifluoromethyl)pyrazin-2-yl]amino}cyclopentyl]benzamide]
- pIC50 [1]: < 5.00
- pIC50 [2]: 7.28

SMILES: O=C(N[C@H]1CCC[C@@H]1Nc1ncc(C(F)(F)F)cn1)c1ccccc1-n1nccn1 [Example 18, 2-(2H-1,2,3-Triazol-2-yl)-N-[(1S,2S)-2-{[5-(trifluoromethyl)pyrimidin-2-yl]amino}cyclopentyl]benzamide]
- pIC50 [1]: < 5.00
- pIC50 [2]: 7.24

SMILES: O=C(N[C@H]1CCC[C@H]1Oc1cnc(C(F)(F)F)cn1)c1ccccc1-n1nccn1 [Example 19, 2-(2H-1,2,3-Triazol-2-yl)-N-[(1S,2R)-2-{[5-(trifluoromethyl)pyrazin-2-yl]oxy}cyclopentyl]benzamide]
- pIC50 [1]: 5.21
- pIC50 [2]: 6.12

SMILES: O=C(N[C@H]1CCC[C@@H]1Oc1cc(C(F)(F)F)ccn1)c1ccccc1-n1nccn1 [Example 20, 2-(2H-1,2,3-Triazol-2-yl)-N-[(1S,2S)-2-{[4-(trifluoromethyl)pyridin-2-yl]oxy}cyclopentyl]benzamide]
- pIC50 [1]: < 5.00
- pIC50 [2]: 6.06

SMILES: COc1cccc(OC)c1C(=O)N[C@H]1CCC[C@@H]1Oc1cc(C(F)(F)F)ccn1 [Example 21, 2,6-Dimethoxy-N-[(1S,2S)-2-{[4-(trifluoromethyl)pyridin-2-yl]oxy}cyclopentyl]benzamide]
- pIC50 [1]: 5.19
- pIC50 [2]: 6.24

SMILES: O=C(NC1CCCC1Cc1cc(C(F)(F)F)ccn1)c1ccccc1-n1nccn1 (stereo not shown) [Example 22, 2-(2H-1,2,3-Triazol-2-yl)-N-(2-{[4-(trifluoromethyl)pyridin-2-yl]methyl}cyclopentyl)benzamide]
- pIC50 [1]: 5.21
- pIC50 [2]: 6.18

SMILES: O=C(NC1CCCC1Cc1ccc(C(F)(F)F)cn1)c1ccccc1-n1nccn1 (stereo not shown) [Example 24, 2-(2H-1,2,3-Triazol-2-yl)-N-(2-{[5-(trifluoromethyl)pyridin-2-yl]methyl}cyclopentyl)benzamide]
- pIC50 [1]: < 5.00
- pIC50 [2]: 6.12

SMILES: Cc1ccc(-n2nccn2)c(C(=O)NC2CCCC2Cc2ccc(C(F)(F)F)cn2)c1 (stereo not shown) [Example 26, 5-Methyl-2-(2H-1,2,3-triazol-2-yl)-N-(2-{[5-(trifluoromethyl)pyridin-2-yl]methyl}cyclopentyl)benzamide]
- pIC50 [1]: < 5.00
- pIC50 [2]: 6.21

SMILES: COc1cccc(OC)c1C(=O)N[C@H]1CCC[C@@H]1Nc1cccc(C(F)(F)F)n1 [Example 27, 2,6-Dimethoxy-N-[(1S,2S)-2-{[6-(trifluoromethyl)pyridin-2-yl]amino}cyclopentyl]benzamide]
- pIC50 [1]: 5.70
- pIC50 [2]: 6.14
